# Test system: Salmonella minnesota strain R60 bacteria on human mononuclear cells
# Assay: TNFα secretion by human mononuclear cells exposed to whole bacteria
# Type: cell-based
# Settings: 10^6/ml Salmonella minnesota R60; antibiotics alone, or Pep19-2.5 added to ceftriaxone or ciprofloxacin; Figure 5
# Description: Mononuclear cells (MNC) were isolated from heparinized blood samples obtained from healthy donors as described previously [1, 24]. […] For stimulation, 200 μL MNC (1 × 10^6 cells) in RPMI medium supplemented with PS/Glu2% (penicillin/streptomycin/glutamine, Biochrome, Berlin, Germany) plus AB serum (4%) was transferred into the wells of a 96-well culture plate.
# The formulations to be tested for stimulation were preincubated for 30 min at 37 °C and added to the cultures at 20 μL per well. The cultures were incubated for 4 h at 37 °C with 5% CO2. Supernatants were collected after centrifugation of the culture plates for 10 min at 400× g and stored at 20 °C until immunological determination of tumor necrosis factor alpha (TNF-α), carried out with a sandwich enzyme-linked immunosorbent assay (ELISA) using a monoclonal antibody against TNF (BD Biosciences, Heidelberg, Germany) as described previously in detail [1]. In the case of the stimulation by the TNFα receptor, interleukin-8 in the supernatants was determined immunologically.
compound,measurement,value
CO/N=C(\C(=O)N[C@@H]1C(=O)N2C(C(=O)O)=C(CSc3nc(=O)c(=O)[nH]n3C)CS[C@H]12)c1csc(N)n1 [ceftriaxone],Influence on TNFα release from hMNC exposed to whole bacteria,only marginally influence the cytokine release
